Data as given in patent US9745318B2, “Fluorescent red emitting functionalizable calcium indicators” (PARIS SCIENCES ET LETTRES—QUARTIER LATIN, priority 2013, dated 2017).
Values joined by “and” are separate entries in the source; they are usually repeats but may differ in a detail not shown here. Equal entries are not always repeated. Where two headings read alike, the source gives them in different places.

What was measured:
[1] = Fluorimetric titration against Ca2+ (cuvette calibration, Hill fit); assay type: binding; conditions: for Kd: 100 mM KCl, 30 mM MOPS, pH 7.2, Hill fit
Experimental: All the solvents were of analytical grade. Chemicals were purchased from commercial sources. ^1H-NMR and ^13C-NMR were measured on a Bruker avance 111-300 MHz spectrometer with chemical shifts reported in ppm (TMS as internal standard). Mass spectra were measured on a Focus GC/DSQ II spectrometer (ThermoScientific) for IC and an API 3000 spectrometer (Applied Biosystems, PE Sciex) for ES. All pH measurements were made with a Mettler Toledo pH-Meter. Fluorescence spectra were recorded on a JASCO FP-8300 spectrofluorometer. Absorption spectra were determined on a VARIAN CARY 300 Bio UV-Visible spectrophotometer. All measurements were done at a set temperature of 25° C. The purity of the dyes were checked by RP-HPLC C-18, eluant: ACN 0.1% TFA/Water 0.1% TFA, method: 20/80 to 100/0 within 20 min then 100/0 for 10 min. detection at λAbs=254 nm. The apparent dissociation constant for calcium (Kd Ca^2+) was measured with a calcium calibration buffer kit from Invitrogen.
A fluorimetric titration of Ia-1 (5 μM) against Ca^2+ in a buffer containing (in mM) 100 KCl and 30 MOPS (pH 7.2) was performed.
A fluorimetric titration of Ia-1-Dextran-6000 conjugate against Ca^2+ in a buffer containing (in mM) 100 KCl and 30 MOPS (pH 7.2) was also conducted.
A fluorimetric titration of Ic-1 and Ic-2 against Ca^2+ in a buffer containing (in mM) 100 KCl and 30 MOPS (pH 7.2) was also conducted. […] The normalised fluorimetric titrations against Ca^2+ of Ia-1, Ic-1 and Ic-2 are represented in FIG. 13.

[2] = Determination of fluorescence quantum yield; assay type: physicochemical; conditions: rhodamine 101 as reference standard
Experimental: The quantum yields φ of Ia-1 were calculated from the slope of the integrated spectral emission (545 to 700 nm) of Ia-1 in the presence (2 mM) or absence (0 mM, 10 mM EGTA) of Ca^2+ vs. absorbance at 535 nm using rhodamine 101 (φ=1.0 in absolute ethanol) as a reference standard. A solvent correction was applied for the comparison of the fluorescence quantum yields of Ia-1 and rhodamine 101. The quantum yields φ were calculated using the following equation where φ is the quantum yield, s is the value of the observed slope and η is the refractive index of the solvent used.
[formula] • The calculations gave: φCalcium free=0.0089 • φCa2+=0.4541 II.4. Two-Photon Excitation of Compound Ia-1

[3] = Two-photon excitation, fluorescence intensity vs. excitation power; assay type: physicochemical
Experimental: Experiments of two-photon excitation of Ia-1 were conducted. Results are represented on FIG. 8. The power function fit to the data gives a power of 1.92±0.10—within one SD of 2.0, as expected for two-photon excitation evidencing that the measured fluorescence was indeed two-photon excited.

Purkinje cells = experiment: High-speed random access two-photon microscopy with climbing fiber stimulation in cerebellar slices; assay type: cell-based, mice; conditions: exponential fit, n=59 spines from 7 cells, 300 μM in pipette
Experimental: For high speed imaging experiments, acute 260 μm thick slices were obtained from the cerebellar vermis of P60 mice and superfused with extracellular saline medium.
Climbing fiber stimulation-evoked transient [Ca^2+] changes in Purkinje cell spines were recorded at high acquisition rate (>2 kHz) by two-photon random-access microscopy, a technique is based on the use of acousto-optic deflectors (AODs), which enable selective scanning of defined points. Purkinje cells were recorded in current-clamp mode, using 2-3MΩ patch pipettes containing 300 μM Ia-1. Recordings were obtained by use of a Multiclamp 700B (Molecular Devices). Following the dialysis of Ia-1, Purkinje cells in slices were imaged under a 25× Leica water immersion objective (HCX IRAPO L 25×/0.95). […] A multifunction card (NI-PCI-MIO 16 E-4) was used to pass all the triggers necessary to synchronize the imaging and the electrophysiology and to control the piezo-electric device that moves the objective in Z. Fluorescence photons were detected by cooled AsGaP photomultipliers (H7421-40, Hamamatsu) discriminated and counted on a fast digital card.
During stimulation of the climbing fiber, fluorescence traces were acquired from multiple spines (range: 4 to 14) at rates over 1 kHz (range 2.2 to 4.8 kHz) (FIGS. 11e and 11f).

[4] = in absolute ethanol; cited from earlier work
[5] = read-out: apparent dissociation constant for Ca2+

[N-]=[N+]=NCCCCCCOc1cc(OCCOc2ccccc2N(CC(=O)O)CC(=O)O)c(N(CC(=O)O)CC(=O)O)cc1C1=c2cc3c4c(c2Oc2c1cc1c5c2CCCN5CCC1)CCC[N+]=4CCC3 [Ia-1]
Kd ([1]; read-out: apparent dissociation constant (KD) for Ca2+): 258 nM
increase of fluorescence on binding [Ca2+] ([1]; cuvette calibration experiments): 50 fold
quantum yield φ, calcium free ([2]; 0 mM Ca2+, 10 mM EGTA): 0.0089
quantum yield φ, Ca2+ bound (maximum quantum yield) ([2]; 2 mM Ca2+): 0.4541 and 0.45
power of the power function fit (fluorescence intensity vs. excitation power) [3]: 1.92±0.10
rise time τ of Ca2+ transients (Purkinje cells): 1.30 ± 0.26 ms

[N-]=[N+]=NCCCCCCOc1cc(OCCOc2cc(F)ccc2N(CC(=O)O)CC(=O)O)c(N(CC(=O)O)CC(=O)O)cc1C1=c2cc3c4c(c2Oc2c1cc1c5c2CCCN5CCC1)CCC[N+]=4CCC3 [Ic-2]
Kd [1, 5]: 320 nM

[N-]=[N+]=NCCCCCCOc1cc(OCCOc2ccc(Cl)cc2N(CC(=O)O)CC(=O)O)c(N(CC(=O)O)CC(=O)O)cc1C1=c2cc3c4c(c2Oc2c1cc1c5c2CCCN5CCC1)CCC[N+]=4CCC3 [Ic-1]
Kd [1, 5]: 1700 nM

O=C(O)c1ccccc1C1=c2cc3c4c(c2Oc2c1cc1c5c2CCCN5CCC1)CCC[N+]=4CCC3.[Cl-] [rhodamine 101]
quantum yield φ of reference standard [4]: 1.0
